This is an account of results in patent US20240368566A1, “PYK2-DERIVED PEPTIDES FOR INHIBITING INVADOPODIA-MEDIATED CANCER METASTASIS” (BAR-ILAN UNIVERSITY, priority 2023, published 2024).

Molecules are shown by their SMILES.

The test system of test [1] is MDA-MB-231 cells. The test is described as follows: ECM degradation assay. The class given is cell-based, human. The settings on record: 24 h on fluorescent fibronectin/gelatin matrix; compared to control peptide. The procedure: The in vitro matrix degradation assay was performed as described in Genna et al., 2018 (supra). Briefly, MatTek dishes were treated with 2.5% gelatin/2.5% sucrose, cross-linked with 0.5% glutaraldehyde, treated with 10 μg/ml of fluorescently labeled fibronectin (Alexa 568; Invitrogen, Thermo Fischer Scientific), and then with 1 mg/ml NaBH4 in PBS. 125,000 cells were plated on the fibronectin/gelatin matrix in Pyk2-PRR or control peptides and allowed to degrade for 24 h. Cells were then fixed in 3.7% paraformaldehyde, and random fields were imaged using an inverted fluorescent microscope (Leica AF6000; 40×, NA 1.3, oil objective). ECM degradation was analyzed by quantifying the average degraded area in pixels per field using ImageJ.

Test [2] deals with MDA-MB-231 cells. The test is described as follows: 3D scratch wound assay in Matrigel. It is filed as cell-based, human. The settings on record: 0.1, 1, 5 μM peptide; versus scrambled control. How it is done:
The 3D scratch wound assay was performed as described in Meirson et al. Targeting invadopodia-mediated breast cancer metastasis by using ABL kinase inhibitors. Oncotarget 2018; 9: 22158-22183. Briefly, 96 well Image Lock microtiter plates (Essen Bioscience) were coated with 100 μg/ml Matrigel (cat #354234; Corning, New-York, NY, USA). Following overnight incubation at 37° C., MDA-MB-231 cells were plated at a final concentration of 350,000 cells/ml and allowed to adhere for 12-16 h in the presence of Pyk2-PRR or control peptides. Following wounding of the bottom Matrigel-cells layer, a top layer of Matrigel was added to a final concentration of 2 mg/ml and allowed to polymerize for 30 min at 37° C. Pyk2-PRR or control scrambled peptides were then added again in DMEM/10% FBS to a final concentration of 0.1, 1, or 5 μM, with or without the MMP inhibitor GM6001 ([…]). Plates were placed in a 37° C. heated chamber, and images were collected using the IncuCyte® Zoom platform (Essen Bioscience; 20×, NA 0.60, air objective). Phase images were collected every one hour for a total of 12 h using the IncuCyte® acquisition software.

Turning to `C[C@H](NC(=O)[C@@H](N)[C@@H](C)O)C(=O)N[C@@H](Cc1ccccc1)C(=O)N[C@@H](CCC(N)=O)C(=O)N[C@@H](CCC(=O)O)C(=O)N1CCC[C@H]1C(=O)N1CCC[C@H]1C(=O)N1CCC[C@H]1C(=O)N[C@@H](CCCCN)C(=O)N1CCC[C@H]1C(=O)N[C@@H](CO)C(=O)N[C@@H](CCCNC(=N)N)C(=O)N1CCC[C@H]1C(=O)N[C@@H](CCCCN)C(=O)N[C@@H](Cc1ccc(O)cc1)C(=O)N[C@@H](CCCNC(=N)N)C(=O)N1CCC[C@H]1C(=O)N1CCC[C@H]1C(=O)N1CCC[C@H]1C(=O)O` [Pyk2-PRR2, TAFQEPPPKPSRPKYRPPP], the “matrix degradation (degradation area)” value in test [1] was “significant decrease”. Moreover, in test [2], the “invasion towards a scratch wound in 3D Matrigel” value was “significantly reduced ability to close the gap”.
